Measurements as given in patent publication US20240336640A1, “CALCIUM OXALATE CRYSTALLIZATION INHIBITORS FOR RENAL DISORDERS” (VIFOR (INTERNATIONAL) AG, priority 2018, published 2024).
Where a name gives a salt, the structure may show the parent alone.

Assay: CaOx crystallization inhibition assay in human urine, pH 6.2
Conditions: human urine pH 6.2, 1 mM sodium oxalate, 7 h, light microscopy
Description: For comparison of the compounds' efficacy to inhibit calcium oxalate (CaOx) crystallization a simple in vitro assay in urine was used. In brief, human urine (pH 6.2) was mixed with compound, followed by the addition of 1 mM sodium oxalate inducing CaOx crystallization. After 7 hours of incubation at room temperature crystallization was measured by light microscopy, employing an automated image analysis to detect, classify and quantify the CaOx crystal types formed, namely CaOx monohydrate (COM) and CaOx dihydrate (COD).
Human urine was stored at −20° C. in 50 mL aliquots. After thawing, aliquots were centrifuged, filtered using a 0.45-μm syringe filter and pH set to 6.2. Oxalate concentrations of human urine samples were determined using the Oxalate Assay kit following the kit protocol, and found to be <100 μM for the samples used. Dilutions of sodium and compounds were prepared in Bis Tris buffer (50 mM, 150 mM NaCl, pH 6.2). Urine was mixed with compound in Eppendorf tubes, and subsequently sodium oxalate was added. The final assay mixture of 1 mL total volume contained 90% urine, 5% sodium oxalate (1 mM) and 5% compound dilution. Immediately upon sodium oxalate addition, the final assay mixture was vortexed and added to the imaging slide (8 well glass bottom chamber, ibidi). 400 μL per well were added and two wells for each sample were prepared. Crystallization was assessed after 7 h incubation at room temperature, using a Leica CTR6000 microscope (Leica Microsystems, Wetzlar, Germany) in brightfield mode. For visualization, images with a 40× objective were used. For quantification 2 wells/sample with five 20× objective images each were used. Without addition of sodium oxalate no crystallization was observed.
Quantification and classification of crystals was performed in Matlab (version R2016b or R2018b). In brief, crystals were segmented using edge detection and watershed algorithms and subsequently shape, intensity and texture features for each crystal were extracted. The extracted features served as input for a semi-supervised classification approach to distinguish COM (class 0), COD (class 1), not determined structures (class 2) and background noise (class 3). A cubic support vector machine (SVM) classifier was trained and subsequently used for classification of testing images.
All testing images were processed using the Batch Processing App. Efficacy of compounds to inhibit CaOx crystallization was compared by analysing the total area per field of view for each crystal type. The sum of the total area of the three crystal classes—COM, COD and unclassified, was normalized to the control within each experiment (N=3). Due to the inherent variability of the crystallization process itself, normalization within each experiment decreased the effect of inter-experimental variability.

Row | SMILES | 50% complete inhibition (<50% total area) [µM] | COM inhibition (<5% of total area) [µM] | Complete inhibition (i.e <5% total area) [µM]
1 | COCCOCCO[C@@H]1C(OP(=O)(O)O)[C@H](OCCOCCOC)[C@@H](OP(=O)(O)O)C(OP(=O)(O)O)[C@H]1OP(=O)(O)O (stereo partly drawn) [(OEG2)2-IP4] | >100 | >100 | >100
2 | O=C(O)CC(O)(CC(=O)O)C(=O)O [Citrate, Trisodium citrate dihydrate] | >100 | >100 | >100
3 | O=P(O)(O)O[C@H]1[C@H](OP(=O)(O)O)[C@@H](OP(=O)(O)O)[C@H](OP(=O)(O)O)[C@@H](OP(=O)(O)O)[C@H]1OP(=O)(O)O [IP6, inositol hexaphosphate] | 30 | 3 | >30
4 | COCCOCCOCCOCCOCCOCCOCCOCCOCCOCCOCCO[C@@H]1[C@@H](OP(=O)(O)O)[C@H](OP(=O)(O)O)[C@@H](OP(=O)(O)O)[C@@H](OP(=O)(O)O)[C@H]1OP(=O)(O)O [OEG11-IP5] | 11 | 100 | >100
